# Source: patent US20250127913A1, “BIFUNCTIONAL FOLATE RECEPTOR BINDING COMPOUNDS” (LYCIA THERAPEUTICS, INC., priority 2021, published 2025)
# Assays:
# [1] = test system: THP-1 cells overexpressing FOLR2; test: LYTAC mediated uptake of TNFα-Alexa647 in THP-1 WT / FOLR2 overexpressing cells (ΔMFI); format: cell-based; set-up: New-uptake 100 nM-% Example 46 / New-uptake 10 nm-% Example 46: unit not given here; settings: for uptake of TNFα compared the no compound control (DMSO): 300 nM-0.137 nM
# Procedure: Hetero-bifunctional small molecule LYTACs consisting of a TNFα binding moiety, linker and folate receptor binding moiety were tested to determine if folate receptor can internalize TNFα. THP-1 cells overexpressing FOLR2 were generated by stable transduction with lentivirus encoding FOLR2-IRES-GFP. THP-1 WT and FOLR2 overexpressing cells were maintained in RPMI (Gibco #61870143) with 10% v/v FBS (VWR #89510-188) with 2 mM L-alanyl-L-glutamine dipeptide, 100 units/ml penicillin and 100 μg/ml streptomycin (Gibco #27016021). Stable FOLR2 over-expression cells were mixed at a 50:50 ratio with WT THP-1 cells and seeded in a 96 well plate at 50,000 cells in 100 μl folate-free RPMI (Gibco […]) with 10% v/v FBS, 2 mM L-alanyl-L-glutamine dipeptide, 100 units/ml penicillin and 100 μg/ml streptomycin. In a separate 96 well plate, TNFα/folate hetero-bifunctional small molecules were mixed with unmodified TNFα conjugated with Alexa647 by non-specific lysine chemistry. Small molecule LYTACs at a concentration of 600 nM (2× final concentration) in 100 μl folate-free RPMI+10% FBS were incubated at room temperature for 30 mins. The immune complex was serially diluted 3-fold to produce a dose response range from 300 nM-0.137 nM (final concentration). The TNFα/LYTAC complex mixture was transferred to the plate containing a 50:50 mixture of THP1 WT and FOLR2 over expressing cells and incubated for 2 h at 37° C. with 5% C02. Uptake in WT and FOLR2 overexpressing cells was evaluated by flow cytometry by comparing the median fluorescence intensity of […] in the GFP negative (WT) and GFP positive (FOLR2) populations and was quantified as the difference between the mean fluorescence intensities in the APC channel for the GFP positive and GFP negative populations (ΔMFI).
# folate receptor beta [2] = target: T1, folate receptor beta (Homo sapiens (Human), UniProt P14207); test: Folate receptor binding assay (fluorescence polarization); settings: 2.5 nM folate receptor beta, 2 nM FR-Cy probe, 2 hr incubation; read-out: FOLR2-FP
# Method in brief: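 Fluorescence polarization competition with 2 nM folate–Cy5 probe and 2.5 nM receptor in 20 mM Hepes pH 7.5, 250 mM NaCl, Tween-20, 1% DMSO; 3-fold dilutions, 2 h incubation, ex 620/em 688 nm. Duplicates normalized to DMSO (high) and 1 μM folic acid (low); IC50 from 4-parameter fit.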
# TNFα = TNFα (Homo sapiens (Human), UniProt P01375); test: TNFα binding assay (time-resolved FRET, biotinylated TNFα); settings: 1 nM biotinylated TNFα, 80 nM probe, 16 hr incubation; read-out: TNF-HTRF-biotin
# Method in brief: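 Time-resolved FRET displacement of 80 nM acceptor probe from 1 nM biotinylated TNFα with 0.5 nM streptavidin-Tb in 20 mM Hepes pH 7.5, 10 mM MgCl2, 0.015% Tween-20, 0.05 mg/ml BSA, 2% DMSO. Read (ex 340, em 490/520 nm) after 16 hr. Duplicate dose responses normalized to DMSO and 100 nM reference inhibitor; IC50 by 4-parameter fit.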
# folate receptor beta [3] = target: T1, folate receptor beta; test: Folate receptor SPR assay (biotinylated folate receptor beta on streptavidin chip); format: binding; settings: for Rmax: biotinylated folate receptor beta on streptavidin chip; for kd / Kd / kon: multi-cycle kinetics, 25° C., 1:1 model; for Kd: read-out: FOLR2Biotin - SPR Kd; for kon: pH 7.5, read-out: ka
# Method in brief: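 Biotinylated receptor captured on a streptavidin SPR chip; multi-cycle kinetics at 25 °C with 8 compound concentrations (2-fold dilutions) in HEPES pH 7.5, 150 mM NaCl, 0.05% Tween 20, 2% DMSO. Association 120 s, dissociation 600 s; binding parameters from 1:1 model fit.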
# [4] = target: TNFα and streptavidin immobilized FOL2R (Homo sapiens (Human), UniProt P01375+P14207); test: Ternary complex SPR assay; format: binding; settings: 10 nM compound, max response normalized to expected response; for TC 150 nM- tagless TNF Normalized: 150 nM untagged TNF; for TC 300 nM- tagless TNF Normalized: 300 nM untagged TNF
# Method in brief: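 Biotinylated folate receptor beta captured at ~1800 RU on a streptavidin chip; untagged TNF preincubated 6 hr at 25° C with 10 nM compound in HEPES pH 7.5, 150 mM NaCl, 0.05% Tween 20, 2% DMSO, then injected (110 s association, 600 s dissociation). Maximum response normalized to maximum expected response per compound.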
# TNFα and streptavidin immobilized FOL2R, sequence (P14207 17-230): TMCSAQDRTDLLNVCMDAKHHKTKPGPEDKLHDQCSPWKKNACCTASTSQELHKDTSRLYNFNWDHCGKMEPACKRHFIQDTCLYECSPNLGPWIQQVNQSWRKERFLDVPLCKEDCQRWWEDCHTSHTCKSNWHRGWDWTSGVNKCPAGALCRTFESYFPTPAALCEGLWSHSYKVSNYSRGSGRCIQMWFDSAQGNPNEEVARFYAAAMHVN
# TNFα and streptavidin immobilized FOL2R, sequence (P01375 77-233): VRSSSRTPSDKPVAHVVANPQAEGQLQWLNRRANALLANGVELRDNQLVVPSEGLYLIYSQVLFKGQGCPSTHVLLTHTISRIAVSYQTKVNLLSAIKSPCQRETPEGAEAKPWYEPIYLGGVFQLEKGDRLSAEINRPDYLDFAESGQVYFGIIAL
# T1 sequence (P14207 17-255): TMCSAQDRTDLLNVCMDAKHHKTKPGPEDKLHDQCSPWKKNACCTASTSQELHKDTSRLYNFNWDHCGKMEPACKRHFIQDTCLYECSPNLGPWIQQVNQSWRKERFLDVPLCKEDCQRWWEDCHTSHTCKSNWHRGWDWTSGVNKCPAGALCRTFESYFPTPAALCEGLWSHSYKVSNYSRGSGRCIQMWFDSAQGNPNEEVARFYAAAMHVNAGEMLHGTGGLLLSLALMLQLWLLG
# TNFα, sequence (P01375 77-233): as the sequence (P01375 77-233) above
Structure (SMILES),"New-uptake 10 nm-% Example 46 ([1]; 10 nM compound, relative to Example 46 as printed (I-92 = 1.00))","New-uptake 100 nM-% Example 46 ([1]; 100 nM compound, relative to Example 46 as printed (I-92 = 1.00))",IC50 (folate receptor beta [2]) [nM],IC50 (TNFα) [nM],uptake of TNFα compared the no compound control (DMSO) ([1]; 2 h),Rmax (folate receptor beta [3]) [RU],kd (folate receptor beta [3]) [s⁻¹],Kd (folate receptor beta [3]) [nM],kon (folate receptor beta [3]) [M⁻¹ s⁻¹],TC 60 nM taggless TNF normalized ([4]; 60 nM untagged TNF) [%],TC 150 nM- tagless TNF Normalized [4] [%],TC 300 nM- tagless TNF Normalized [4] [%],"EC50 ([1]; Homo sapiens, ΔMFI FOLR2 overexpressing vs WT THP-1 cells, 2 h) [nM]"
"Cc1nc2cc(F)c(-c3cnc(N4CCN(C(=O)COCCn5cc(CN(CCO)CCOCCOCCOCCNC(=O)CC[C@H](NC(=O)c6ccc(NCc7cnc8nc(N)nc(O)c8n7)cc6)c6nn[nH]n6)nn5)CC4)nc3)nc2c(N[C@H](C)c2cc(C#N)ccc2F)c1Cl [Compound I-80, 4-(((2-amino-4-hydroxypteridin-6-yl)methyl)amino)-N—((S)-3-((1-(2-(2-(4-(5-(7-chloro-8-(((R)-1-(5-cyano-2-fluorophenyl)ethyl)amino)-3-fluoro-6-methyl-1,5-naphthyridin-2-yl)pyrimidin-2-yl)piperazin-1-yl)-2-oxoethoxy)ethyl)-1H-1,2,3-triazol-4-yl)methyl)-1-hydroxy-16-oxo-19-(2H-tetrazol-5-yl)-6,9,12-trioxa-3,15-diazanonadecan-19-yl)benzamide]",0.89,1.02,12,36,–,–,–,–,–,–,–,–,–
Cc1nc2cc(F)c(-c3cnc(N4CCN(C(=O)COCCOCCOCCOCCOCCOCCn5cc(CC[C@H](NC(=O)c6ccc(NCc7cnc8nc(N)nc(O)c8n7)cc6)C(=O)O)nn5)CC4)nc3)nc2c(N[C@H](C)c2cc(C#N)ccc2F)c1Cl [Compound I-92],–,–,7.6,20,dose-dependent uptake of TNFα,17.1,8.7e-05,0.00867,1e+07,15.3,16.9,18.7,–
"Cc1nc2cc(F)c(-c3cnc(N4CCN(C(=O)COCCOCCOCCOCCOCCOCCn5cc(CC[C@H](NC(=O)c6ccc(OCc7ccc8nc(N)nc(O)c8c7)cc6)C(=O)O)nn5)CC4)nc3)nc2c(N[C@H](C)c2cc(C#N)ccc2F)c1Cl [Compound I-87, (S)-2-(4-((2-amino-4-hydroxyquinazolin-6-yl)methoxy)benzamido)-4-(1-(20-(4-(5-(7-chloro-8-(((R)-1-(5-cyano-2-fluorophenyl)ethyl)amino)-3-fluoro-6-methyl-1,5-naphthyridin-2-yl)pyrimidin-2-yl)piperazin-1-yl)-20-oxo-3,6,9,12,15,18-hexaoxaicosyl)-1H-1,2,3-triazol-4-yl)butanoic acid]",–,–,8,22,dose-dependent uptake of TNFα,18.7,0.000692,0.035,1.97e+07,–,25.7,32.8,15.3
